Results published in paper PMC7203344, “Sirtuin 1 Inhibiting Thiocyanates (S1th)—A New Class of Isotype Selective Inhibitors of NAD^+ Dependent Lysine Deacetylases” (Frontiers in Oncology, 2020).
Where “and” joins values, the source holds several entries; their conditions need not be identical. Equal entries are not always repeated. Entries after “also recorded” stand apart in the source; their conditions may differ.

Experiments:
Sirt1 [1] = molecular target: T1, Sirt1 (Homo sapiens, UniProt Q96EB6); assay: Fluorescent thermal shift assay (FTSA), Sirt1; assay type: binding
T1 construct: made in house; host or cells: E. coli BL21 Star (DE3)
T1 sequence (Q96EB6 134-747): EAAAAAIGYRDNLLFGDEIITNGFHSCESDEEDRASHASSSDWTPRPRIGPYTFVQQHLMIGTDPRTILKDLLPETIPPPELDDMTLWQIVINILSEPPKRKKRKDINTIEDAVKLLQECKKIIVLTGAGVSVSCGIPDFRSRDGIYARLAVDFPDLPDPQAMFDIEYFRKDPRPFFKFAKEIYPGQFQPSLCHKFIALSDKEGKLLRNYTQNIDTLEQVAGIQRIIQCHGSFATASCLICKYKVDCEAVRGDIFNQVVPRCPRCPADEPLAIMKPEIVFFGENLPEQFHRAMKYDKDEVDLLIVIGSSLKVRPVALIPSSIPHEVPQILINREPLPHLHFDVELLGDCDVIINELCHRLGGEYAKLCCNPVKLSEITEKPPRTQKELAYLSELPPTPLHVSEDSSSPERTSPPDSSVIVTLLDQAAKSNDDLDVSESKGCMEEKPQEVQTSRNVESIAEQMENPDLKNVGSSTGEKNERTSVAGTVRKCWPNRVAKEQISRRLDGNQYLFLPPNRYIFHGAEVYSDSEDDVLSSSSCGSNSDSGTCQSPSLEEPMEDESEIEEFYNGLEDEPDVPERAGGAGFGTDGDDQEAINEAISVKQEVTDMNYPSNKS
Method: In a 96-well plate (Hard-Shell® PCR-plates, 96-well, thin-wall, BioRAD, USA) 14 μL Sirt1_134−747 in assay buffer (0.3 mg/mL final assay concentration, 50 mM Tris/HCl, 137 mM NaCl, 2.7 mM KCl, 1 mM MgCL2, pH 8.0) were mixed with 1 μL inhibitor in DMSO (100 μM) or DMSO [final assay concentration 5% (v/v)] as a control and 5 μL SyproOrange (1:100 in assay buffer). The fluorescence intensity was monitored during a constant increase of temperature from 20 to 95°C, 1 K per 20 s, using a real-time-PCR-machine (C1000 TouchTM Thermal Cycler, CFX96TM Real-Time System, BioRAD, USA). Melting temperatures were calculated via GraphPad Prism according to a published procedure ([60]).

Sirt1 [2] = molecular target: T1, Sirt1; assay: Homogeneous ZMAL-based fluorescence assay, Sirt1; assay type: biochemical
Method: (§1) Recombinant human Sirt5_37−310 was purchased readily in Tris Buffer [25 mM Tris, 100 mM NaCl, 5 mM DTT, 10% glycerol (v/v)] from Enzo Life Sciences (NY, USA). Human Sirt3_118−395 was expressed and purified as described previously ([54]). For expression of human Sirt1_134−747 and Sirt2_56−356 chemically competent cells of E. coli BL21 Star (DE3) were transformed with the expression vectors pET30S-hSirt1_134−747 or pET30S-hSirt2_56−356. Bacteria were grown at 37°C in 2×YT medium supplemented with 50 μg·mL^−1 of kanamycin to an OD600 of 0.6. Then isopropyl-β-D-1-thiogalactopyranoside (IPTG) was added to a final concentration of 1 mM to induce gene expression. After further cultivation at 20°C for 12 h, the cells were harvested by centrifugation for 15 min at 5,000 g. The cells were resuspended in lysis buffer [100 mM Tris/HCl buffer at pH 8.0, 150 mM NaCl and 10% (v/v) glycerol] and disrupted by ultrasonication (Branson Digital Sonifier 250) at 70% amplitude for 10 min (3 s working, 10 s pause). The crude extract was cleared by centrifugation at 100,000 g for 1 h, and the supernatant was loaded onto a Strep-Tactin Superflow cartridge (5 ml bed volume, IBA Lifescience, Germany). Target proteins were eluted with lysis buffer containing 5 mM D-Desthiobiotin (IBA Lifescience, Germany) and further separated by size-exclusion chromatography (Superdex S200 26/60, GE Healthcare, IL, USA) equilibrated in Tris/HCl buffer (20 mM, 150 mM NaCl, pH 8.0). Pure protein was concentrated by ultrafiltration, flash-frozen in liquid nitrogen and stored at −80°C until further use. Identity as well as purity were verified by SDS-PAGE ([55]) and protein concentration was determined by the bicinchoninic acid (BCA) method, using bovine serum albumin (BSA) as a standard ([56]). Deacetylase activity was confirmed to be NAD^+-dependent and could be inhibited with the physiological sirtuin inhibitor nicotinamide.
(§2) All compounds were tested in the trypsin-coupled high-throughput ZMAL-assay in black 96-well plates (OptiPlateTM−96F, black, 96 well, Pinch bar design, PerkinElmer, USA), using ZMAL (Z-Lys(acetyl)-AMC) as a substrate ([57]). Sirt1_134−747, Sirt2_56−356, and Sirt3_118−395 were mixed with 5 μL substrate (10.5 μM final assay concentration, diluted from a […] stock in DMSO) and 3 μL Inhibitor in DMSO at various concentrations or DMSO as a control [final DMSO concentration 5% (v/v)]. The mixture was supplemented with assay buffer (50 mM Tris/HCl, 137 mM NaCl, 2.7 mM KCl, 1 mM MgCL2, pH 8.0) to a total volume of 55 μL. Enzyme concentration was adjusted to get a final conversion of 20–30%. Addition of 5 μL NAD^+ (6 mM in assay buffer, final assay concentration of 500 μM) initiated the catalytic reaction and the plates were incubated at 37°C for 4 h with agitation at 140 rpm. The catalytic reaction was stopped by addition of 60 μL stop solution [50 mM Tris, 100 mM NaCl, 6.7% (V/V) DMSO, 5.5 U/μL trypsin, 8 μM nicotinamide, pH 8.0]. The plate was again incubated at 37°C and 140 rpm for 20 min to release free AMC from the deacetylated substrate by trypsin digestion. Afterwards, fluorescence intensity was measured in a microplate reader (λEx = 390 nm, λEm = 460 nm, BMG POLARstar Optima, BMG Labtech, Germany). An enzyme-free blank control and a 100% conversion control containing AMC instead of ZMAL were measured in addition. Inhibition was calculated in % in relation to a DMSO control after blank signal subtraction and IC50 values were determined using a non-linear regression to fit the dose-response curve with OriginPro 9G (OriginLab, USA). Pre-tests as well as IC50 determination was carried out at least twice in duplicates.

human Sirt2 = molecular target: T2, human Sirt2 (Homo sapiens, UniProt Q8IXJ6); assay: Homogeneous ZMAL-based fluorescence assay, Sirt2; assay type: biochemical
T2 construct: made in house; host or cells: E. coli BL21 Star (DE3)
T2 sequence (Q8IXJ6 56-356): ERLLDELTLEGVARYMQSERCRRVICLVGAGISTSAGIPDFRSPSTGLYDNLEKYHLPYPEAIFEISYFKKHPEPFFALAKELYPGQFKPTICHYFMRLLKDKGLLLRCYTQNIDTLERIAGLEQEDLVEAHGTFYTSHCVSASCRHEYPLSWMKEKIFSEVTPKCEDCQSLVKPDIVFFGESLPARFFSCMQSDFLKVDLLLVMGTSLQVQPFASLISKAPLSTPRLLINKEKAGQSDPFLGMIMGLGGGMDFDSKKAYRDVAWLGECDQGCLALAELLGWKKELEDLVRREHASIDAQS
Method: as §1, §2

human Sirt3 = molecular target: T3, human Sirt3 (Homo sapiens, UniProt Q9NTG7); assay: Homogeneous ZMAL-based fluorescence assay, Sirt3; assay type: biochemical
T3 construct: Human Sirt3_118−395 was expressed and purified as described previously; made in house
T3 sequence (Q9NTG7 118-395): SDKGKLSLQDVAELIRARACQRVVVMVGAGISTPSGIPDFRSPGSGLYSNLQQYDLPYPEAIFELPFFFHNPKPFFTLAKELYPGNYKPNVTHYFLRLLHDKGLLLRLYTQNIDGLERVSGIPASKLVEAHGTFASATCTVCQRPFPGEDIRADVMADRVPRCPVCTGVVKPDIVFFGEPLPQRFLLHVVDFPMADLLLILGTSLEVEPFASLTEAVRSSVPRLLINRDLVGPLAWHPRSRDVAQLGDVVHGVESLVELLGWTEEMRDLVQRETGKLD
Method: as §1, §2

[3] = test system: γH2AX/H2AX levels in MEF cells; assay: γH2AX level determination by western blot; assay type: cell-based, mouse; details: 48 h, EX-527 10 μM, S1th 10 30 μM, S1th 12 20 μM, S1th 13 12 μM, SirReal2 30 μM
Method: Sirt1 WT and KO MEFS cells were treated with 10 μM EX-527, 12 μM S1th 13 (6), 20 μM S1th 12 (5), 30 μM S1th 10 (7) and 30 μM SirReal2 [Sirt2 inhibitor, synthesized according to ([62])] for 48 h. Oxidative stress was induced using 10 μM Camptothecin 2 h. Whole-cell extracts were performed according to the Dignam protocol ([63]). Primary antibodies used for the western blot were anti-H2AX and anti-γH2AX (ab11175 and ab2893 resp., Abcam, UK). Densiometric analysis of the western blots was performed with Quantity One software (Bio-Rad Laboratories, Inc., USA).

[4] = 2nd round of in vitro screening

NC(=O)c1ccc[n+]([C@@H]2O[C@H](COP(=O)([O-])OP(=O)(O)OC[C@H]3O[C@@H](n4cnc5c(N)ncnc54)[C@H](O)[C@@H]3O)[C@@H](O)[C@H]2O)c1 [NAD^+]
effect on Tm of Sirt1 (in words) (Sirt1 [1]): slightly increased

O=c1c2cccnc2sn1Cc1ccc(C(F)(F)F)cc1 [PU141]
effect on Tm of Sirt1 (in words) (Sirt1 [1]): no reasonable melting curve is obtained

CCCc1cc(=O)[nH]c(SCC(=O)Nc2cccc(SC#N)c2)n1 [S1th 1]
inhibition at 50 µM (Sirt1 [2]; 50 µM, primary screen): 82% | IC50 (Sirt1 [2]; [4]): 13 ± 0.6 µM | inhibition at 50 µM (human Sirt2; [4]): 23% | inhibition at 50 µM (human Sirt3; [4]): < 10%

N#CSc1cccc(NC(=O)c2ccc3c(c2)OCCO3)c1 [S1th 7]
IC50 (Sirt1 [2]; 3rd round): 6.34 µM and 6.3 µM | inhibition at 50 µM (human Sirt2; 3rd round): < 10% | inhibition at 50 µM (human Sirt3; 3rd round): < 10%

O=C(Nc1ccccc1-c1cn2c(CN3CCNCC3)csc2n1)c1cnc2ccccc2n1 [SRT1720]
effect on Tm of Sirt1 (in words) (Sirt1 [1]): barely effected; also recorded: very small shift or no shift at all

Cc1cc(C)nc(SCC(=O)Nc2ncc(Cc3cccc4ccccc34)s2)n1 [SirReal2, reference compound]
γH2AX/H2AX levels without Camptothecin [3]: does not affect

adenosine diphosphate ribose [ADPR]
effect on Tm of Sirt1 (in words) (Sirt1 [1]): strongly increased | stabilization (increase of Tm) of Sirt1 (Sirt1 [1]): up to 4 K
